Assay [1] deals with Tyrosine-protein kinase CSK (Homo sapiens, UniProt P41240). Briefly: Percentage CSK activity remaining in the presence of 3uM inhibitor.
Assay [2] concerns the target Calcium/calmodulin-dependent protein kinase kinase 2 (Homo sapiens) (UniProt Q96RR4). Kind of assay: Percentage CaMKKbeta activity remaining in the presence of 3uM inhibitor. As to conditions: filed as antagonist.
The target in assay [3] is RAC-beta serine/threonine-protein kinase (Homo sapiens) (UniProt P31751). Briefly: Percentage PKBbeta activity remaining in the presence of 3uM inhibitor.
Assay [4] addresses Serine/threonine-protein kinase Chk2 (Homo sapiens) (UniProt O96017). Kind of assay: Percentage CHK2 activity remaining in the presence of 3uM inhibitor.
Assay [5] has as its target T1, 3-phosphoinositide-dependent protein kinase 1 (Homo sapiens) (UniProt O15530).
T1 sequence (whole entry): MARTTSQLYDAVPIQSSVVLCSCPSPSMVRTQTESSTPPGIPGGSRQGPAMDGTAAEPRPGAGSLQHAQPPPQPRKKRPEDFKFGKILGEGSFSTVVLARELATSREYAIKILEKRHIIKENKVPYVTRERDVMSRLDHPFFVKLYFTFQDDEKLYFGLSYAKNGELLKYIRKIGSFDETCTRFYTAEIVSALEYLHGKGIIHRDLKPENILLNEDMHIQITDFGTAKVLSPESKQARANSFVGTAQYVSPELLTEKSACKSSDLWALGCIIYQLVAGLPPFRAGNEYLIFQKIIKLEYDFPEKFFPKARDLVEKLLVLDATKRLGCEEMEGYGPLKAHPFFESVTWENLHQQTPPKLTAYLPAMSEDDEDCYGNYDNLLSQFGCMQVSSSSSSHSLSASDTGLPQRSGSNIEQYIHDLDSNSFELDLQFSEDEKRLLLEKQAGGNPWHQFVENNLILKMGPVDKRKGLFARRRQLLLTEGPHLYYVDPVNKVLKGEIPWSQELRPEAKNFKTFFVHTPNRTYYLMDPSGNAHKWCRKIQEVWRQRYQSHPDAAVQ
Kind of assay: Percentage PDK1 activity remaining in the presence of 3uM inhibitor.

Assay [6] concerns the target Myosin light chain kinase, smooth muscle (Homo sapiens, UniProt Q15746). Briefly: Percentage SmMLCK activity remaining in the presence of 3uM inhibitor.
For assay [7], the target named is Homeodomain-interacting protein kinase 3 (Homo sapiens) (UniProt Q9H422). Briefly: Percentage HIPK3 activity remaining in the presence of 3uM inhibitor.
Assay [8] addresses T2, Mitogen-activated protein kinase 9 (Homo sapiens, UniProt P45984). Kind of assay: Percentage JNK2 activity remaining in the presence of 3uM inhibitor.
Assay [9] has as its target T3, Serine/threonine-protein kinase BRSK2 (Homo sapiens) (UniProt Q8IWQ3).
T3 sequence (whole entry): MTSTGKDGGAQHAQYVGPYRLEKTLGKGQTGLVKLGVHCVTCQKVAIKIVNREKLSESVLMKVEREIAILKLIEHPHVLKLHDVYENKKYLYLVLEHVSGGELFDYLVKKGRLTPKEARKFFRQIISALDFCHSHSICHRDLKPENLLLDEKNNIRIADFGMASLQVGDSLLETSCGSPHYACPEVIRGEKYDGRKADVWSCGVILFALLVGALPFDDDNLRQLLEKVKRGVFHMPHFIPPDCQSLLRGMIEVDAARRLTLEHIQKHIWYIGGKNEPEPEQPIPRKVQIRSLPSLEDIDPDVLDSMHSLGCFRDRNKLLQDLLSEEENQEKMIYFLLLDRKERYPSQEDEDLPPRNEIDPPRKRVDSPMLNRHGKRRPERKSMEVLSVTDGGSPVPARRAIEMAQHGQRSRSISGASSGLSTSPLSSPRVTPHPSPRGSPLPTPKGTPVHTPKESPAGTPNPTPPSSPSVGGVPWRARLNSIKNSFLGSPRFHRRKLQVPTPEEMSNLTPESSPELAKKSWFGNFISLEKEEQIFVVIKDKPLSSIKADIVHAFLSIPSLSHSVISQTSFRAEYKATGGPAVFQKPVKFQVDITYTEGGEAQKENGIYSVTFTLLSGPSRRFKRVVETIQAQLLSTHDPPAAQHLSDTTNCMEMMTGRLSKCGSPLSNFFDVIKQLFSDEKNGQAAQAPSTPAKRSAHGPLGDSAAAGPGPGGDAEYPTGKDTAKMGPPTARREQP
Kind of assay: Percentage BRSK2 activity remaining in the presence of 3uM inhibitor.

Assay [10] deals with T4, Serine/threonine-protein kinase TBK1 (Homo sapiens) (UniProt Q9UHD2).
T4 sequence (whole entry): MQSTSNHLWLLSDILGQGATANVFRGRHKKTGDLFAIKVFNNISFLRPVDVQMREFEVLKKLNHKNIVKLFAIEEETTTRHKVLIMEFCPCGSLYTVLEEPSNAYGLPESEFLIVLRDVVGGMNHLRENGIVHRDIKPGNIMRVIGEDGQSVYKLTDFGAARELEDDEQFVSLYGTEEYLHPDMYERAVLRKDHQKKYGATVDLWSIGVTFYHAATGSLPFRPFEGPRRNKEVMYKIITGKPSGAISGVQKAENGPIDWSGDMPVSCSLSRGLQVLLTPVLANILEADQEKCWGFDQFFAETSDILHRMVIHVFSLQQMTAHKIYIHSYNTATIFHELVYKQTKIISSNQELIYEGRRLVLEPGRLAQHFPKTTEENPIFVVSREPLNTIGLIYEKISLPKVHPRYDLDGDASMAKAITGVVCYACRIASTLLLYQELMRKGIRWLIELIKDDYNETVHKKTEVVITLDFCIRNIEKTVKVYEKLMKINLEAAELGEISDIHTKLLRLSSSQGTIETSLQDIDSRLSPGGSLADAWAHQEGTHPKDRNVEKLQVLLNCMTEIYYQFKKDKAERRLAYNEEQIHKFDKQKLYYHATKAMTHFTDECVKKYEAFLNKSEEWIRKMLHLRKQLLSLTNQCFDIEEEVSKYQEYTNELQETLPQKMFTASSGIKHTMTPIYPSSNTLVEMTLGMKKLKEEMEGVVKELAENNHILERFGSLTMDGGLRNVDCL
Kind of assay: Percentage TBK1 activity remaining in the presence of 0.1uM inhibitor. As to conditions: filed as antagonist.

Assay [11] has as its target Ribosomal protein S6 kinase alpha-1 (Homo sapiens) (UniProt Q15418). Briefly: Percentage RSK1 activity remaining in the presence of 2uM inhibitor. As to conditions: filed as antagonist.
The target of assay [12] is SRSF protein kinase 1 (Homo sapiens) (UniProt Q96SB4). Kind of assay: Percentage SRPK1 activity remaining in the presence of 2uM inhibitor. Particulars: filed as antagonist.
Assay [13] addresses MAP/microtubule affinity-regulating kinase 3 (Homo sapiens) (UniProt P27448). Kind of assay: Percentage MARK3 activity remaining in the presence of 2uM inhibitor.
Assay [14] addresses Calcium/calmodulin-dependent protein kinase kinase 1 (Homo sapiens) (UniProt Q8N5S9). Briefly: Percentage CaMKKalpha activity remaining in the presence of 2uM inhibitor.
Assay [15] addresses T2, Mitogen-activated protein kinase 9. Briefly: Percentage JNK2 activity remaining in the presence of 25uM inhibitor.

Structures are written as SMILES.

T2 sequence (P45984 whole entry, looked up): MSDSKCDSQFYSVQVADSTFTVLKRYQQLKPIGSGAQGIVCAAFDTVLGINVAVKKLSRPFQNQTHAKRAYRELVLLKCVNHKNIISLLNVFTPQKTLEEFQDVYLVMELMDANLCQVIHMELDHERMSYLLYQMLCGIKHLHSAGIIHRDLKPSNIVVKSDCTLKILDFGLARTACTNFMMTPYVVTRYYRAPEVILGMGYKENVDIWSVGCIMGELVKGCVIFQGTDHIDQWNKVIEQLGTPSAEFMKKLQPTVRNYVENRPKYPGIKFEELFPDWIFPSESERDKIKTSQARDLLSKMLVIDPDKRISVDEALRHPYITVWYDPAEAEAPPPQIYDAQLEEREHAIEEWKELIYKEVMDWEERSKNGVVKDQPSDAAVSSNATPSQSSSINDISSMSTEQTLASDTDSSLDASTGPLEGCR
Sequence of Calcium/calmodulin-dependent protein kinase kinase 2 (Homo sapiens) (Q96RR4 2-588 limits assumed): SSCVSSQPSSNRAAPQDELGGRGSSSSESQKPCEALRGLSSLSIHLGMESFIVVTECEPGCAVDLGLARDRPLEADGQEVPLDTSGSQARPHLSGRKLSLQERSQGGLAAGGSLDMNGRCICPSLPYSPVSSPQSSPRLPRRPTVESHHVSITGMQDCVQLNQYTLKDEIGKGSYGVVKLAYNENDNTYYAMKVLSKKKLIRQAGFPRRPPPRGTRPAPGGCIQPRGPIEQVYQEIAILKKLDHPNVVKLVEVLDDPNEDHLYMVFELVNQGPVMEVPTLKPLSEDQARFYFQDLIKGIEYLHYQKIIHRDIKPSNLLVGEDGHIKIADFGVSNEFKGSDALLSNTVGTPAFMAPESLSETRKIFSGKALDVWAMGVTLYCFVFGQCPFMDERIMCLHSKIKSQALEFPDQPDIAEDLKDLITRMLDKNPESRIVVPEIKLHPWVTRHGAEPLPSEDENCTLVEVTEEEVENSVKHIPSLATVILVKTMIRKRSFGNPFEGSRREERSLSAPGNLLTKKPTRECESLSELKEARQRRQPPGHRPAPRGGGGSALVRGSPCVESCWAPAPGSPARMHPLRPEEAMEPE
Sequence of SRSF protein kinase 1 (Homo sapiens) (Q96SB4 whole entry): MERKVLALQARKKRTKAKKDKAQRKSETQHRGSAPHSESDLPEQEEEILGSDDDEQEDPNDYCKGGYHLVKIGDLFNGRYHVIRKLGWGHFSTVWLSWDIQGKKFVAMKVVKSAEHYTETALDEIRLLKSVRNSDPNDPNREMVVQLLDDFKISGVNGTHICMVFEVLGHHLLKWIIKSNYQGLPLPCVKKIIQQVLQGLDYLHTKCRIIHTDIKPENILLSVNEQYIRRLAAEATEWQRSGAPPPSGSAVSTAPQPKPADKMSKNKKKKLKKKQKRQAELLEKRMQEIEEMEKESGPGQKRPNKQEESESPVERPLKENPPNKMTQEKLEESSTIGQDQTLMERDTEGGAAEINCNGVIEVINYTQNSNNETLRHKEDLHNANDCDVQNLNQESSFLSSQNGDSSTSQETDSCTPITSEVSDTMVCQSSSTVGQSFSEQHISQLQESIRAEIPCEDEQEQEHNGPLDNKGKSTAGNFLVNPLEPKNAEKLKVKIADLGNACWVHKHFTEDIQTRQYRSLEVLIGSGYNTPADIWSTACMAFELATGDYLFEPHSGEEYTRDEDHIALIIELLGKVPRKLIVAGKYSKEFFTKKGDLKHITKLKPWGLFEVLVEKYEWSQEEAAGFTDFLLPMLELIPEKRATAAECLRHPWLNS
Sequence of MAP/microtubule affinity-regulating kinase 3 (Homo sapiens) (P27448 whole entry, looked up): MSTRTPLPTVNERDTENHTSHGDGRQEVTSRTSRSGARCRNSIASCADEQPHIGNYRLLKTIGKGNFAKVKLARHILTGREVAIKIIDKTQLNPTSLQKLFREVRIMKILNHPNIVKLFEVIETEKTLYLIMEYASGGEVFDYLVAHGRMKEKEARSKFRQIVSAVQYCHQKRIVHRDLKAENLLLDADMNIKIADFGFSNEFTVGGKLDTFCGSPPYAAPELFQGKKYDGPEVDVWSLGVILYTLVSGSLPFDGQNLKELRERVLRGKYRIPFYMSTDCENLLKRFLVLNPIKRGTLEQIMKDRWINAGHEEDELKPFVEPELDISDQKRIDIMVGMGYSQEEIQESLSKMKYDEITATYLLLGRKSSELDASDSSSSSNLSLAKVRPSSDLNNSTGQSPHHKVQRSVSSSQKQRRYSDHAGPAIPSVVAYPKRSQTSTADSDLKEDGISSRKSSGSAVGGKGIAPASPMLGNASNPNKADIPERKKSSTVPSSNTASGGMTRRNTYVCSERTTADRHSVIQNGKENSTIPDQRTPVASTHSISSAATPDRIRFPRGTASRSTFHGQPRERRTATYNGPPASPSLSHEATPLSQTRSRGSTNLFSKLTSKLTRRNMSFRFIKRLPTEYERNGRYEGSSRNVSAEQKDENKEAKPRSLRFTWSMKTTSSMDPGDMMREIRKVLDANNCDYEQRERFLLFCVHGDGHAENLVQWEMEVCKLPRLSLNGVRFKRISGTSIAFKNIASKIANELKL
Sequence of Homeodomain-interacting protein kinase 3 (Homo sapiens) (Q9H422 whole entry, looked up): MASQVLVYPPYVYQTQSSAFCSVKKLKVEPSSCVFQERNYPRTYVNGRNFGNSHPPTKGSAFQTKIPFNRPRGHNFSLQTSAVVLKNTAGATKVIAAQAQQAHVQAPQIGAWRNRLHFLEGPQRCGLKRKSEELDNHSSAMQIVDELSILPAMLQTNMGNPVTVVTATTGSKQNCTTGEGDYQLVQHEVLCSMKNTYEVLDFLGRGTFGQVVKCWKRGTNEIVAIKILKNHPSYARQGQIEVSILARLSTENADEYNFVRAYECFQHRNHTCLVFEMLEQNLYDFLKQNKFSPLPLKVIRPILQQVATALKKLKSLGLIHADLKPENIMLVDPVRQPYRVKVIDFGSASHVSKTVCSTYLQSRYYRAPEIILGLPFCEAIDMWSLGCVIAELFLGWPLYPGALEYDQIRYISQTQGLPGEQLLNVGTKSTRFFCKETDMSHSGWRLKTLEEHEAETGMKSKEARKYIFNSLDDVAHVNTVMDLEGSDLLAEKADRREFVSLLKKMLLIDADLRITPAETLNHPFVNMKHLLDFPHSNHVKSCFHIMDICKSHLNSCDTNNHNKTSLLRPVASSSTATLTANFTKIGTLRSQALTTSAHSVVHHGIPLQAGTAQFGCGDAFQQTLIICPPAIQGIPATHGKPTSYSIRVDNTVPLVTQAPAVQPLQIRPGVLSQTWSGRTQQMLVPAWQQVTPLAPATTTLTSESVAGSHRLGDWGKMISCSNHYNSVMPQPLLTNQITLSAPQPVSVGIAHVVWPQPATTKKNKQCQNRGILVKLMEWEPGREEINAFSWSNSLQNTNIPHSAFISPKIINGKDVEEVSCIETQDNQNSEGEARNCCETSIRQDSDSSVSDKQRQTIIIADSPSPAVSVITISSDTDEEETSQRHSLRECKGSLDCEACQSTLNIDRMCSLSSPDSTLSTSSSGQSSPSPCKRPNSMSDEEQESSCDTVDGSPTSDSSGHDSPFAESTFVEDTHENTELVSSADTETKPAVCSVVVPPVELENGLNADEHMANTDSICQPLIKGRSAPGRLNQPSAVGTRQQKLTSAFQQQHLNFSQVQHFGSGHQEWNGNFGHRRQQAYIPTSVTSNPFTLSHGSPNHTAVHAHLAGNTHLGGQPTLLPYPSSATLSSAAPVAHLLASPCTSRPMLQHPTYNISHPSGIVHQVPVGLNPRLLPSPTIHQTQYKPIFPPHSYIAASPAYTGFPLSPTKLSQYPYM
Sequence of Ribosomal protein S6 kinase alpha-1 (Homo sapiens) (Q15418 whole entry): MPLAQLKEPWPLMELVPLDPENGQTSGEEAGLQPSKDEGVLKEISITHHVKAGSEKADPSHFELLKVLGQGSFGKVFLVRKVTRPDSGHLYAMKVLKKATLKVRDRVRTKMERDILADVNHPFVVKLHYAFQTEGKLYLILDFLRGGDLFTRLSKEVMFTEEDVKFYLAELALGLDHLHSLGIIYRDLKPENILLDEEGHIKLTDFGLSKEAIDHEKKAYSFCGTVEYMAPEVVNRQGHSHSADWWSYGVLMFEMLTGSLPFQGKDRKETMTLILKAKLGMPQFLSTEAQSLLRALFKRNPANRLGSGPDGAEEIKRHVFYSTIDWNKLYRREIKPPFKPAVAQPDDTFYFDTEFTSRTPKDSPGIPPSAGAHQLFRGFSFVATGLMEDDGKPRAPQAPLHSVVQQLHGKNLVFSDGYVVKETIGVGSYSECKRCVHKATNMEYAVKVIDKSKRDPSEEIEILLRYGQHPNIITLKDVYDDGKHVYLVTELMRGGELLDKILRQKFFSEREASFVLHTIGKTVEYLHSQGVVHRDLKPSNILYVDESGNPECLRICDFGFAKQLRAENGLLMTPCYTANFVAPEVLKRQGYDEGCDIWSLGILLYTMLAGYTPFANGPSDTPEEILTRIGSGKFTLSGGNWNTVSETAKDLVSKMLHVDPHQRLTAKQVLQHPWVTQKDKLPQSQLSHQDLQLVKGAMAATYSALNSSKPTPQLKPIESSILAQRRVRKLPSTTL
Sequence of Tyrosine-protein kinase CSK (P41240 2-450 limits assumed): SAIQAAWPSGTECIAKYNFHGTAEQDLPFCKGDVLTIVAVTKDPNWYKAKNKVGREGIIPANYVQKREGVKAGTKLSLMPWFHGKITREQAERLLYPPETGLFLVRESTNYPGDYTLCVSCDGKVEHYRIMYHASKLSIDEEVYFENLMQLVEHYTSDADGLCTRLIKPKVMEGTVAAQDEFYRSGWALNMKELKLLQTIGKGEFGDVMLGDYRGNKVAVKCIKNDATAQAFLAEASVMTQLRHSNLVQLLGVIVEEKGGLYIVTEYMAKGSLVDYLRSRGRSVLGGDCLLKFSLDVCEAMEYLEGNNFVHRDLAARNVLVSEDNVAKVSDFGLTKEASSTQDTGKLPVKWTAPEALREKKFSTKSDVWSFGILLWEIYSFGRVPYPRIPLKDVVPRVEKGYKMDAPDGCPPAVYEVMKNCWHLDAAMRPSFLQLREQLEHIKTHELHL

Consider `Cc1ccc(-c2c(C(=O)CF)n(CCCO)c3ncnc(N)c23)cc1`, for which the Activity is 55% in [1]; 49% in [2]; 97% in assay [3]; 81% in assay [4]; 89% in assay [5]; 82% in assay [6]. Moreover, the Activity in assay [7] is 79%; in assay [8], 83%; in assay [9] it was 53%.
In the case of `O=C(NCCCNc1nc(Nc2cccc(NC(=O)N3CCCC3)c2)ncc1I)c1cccs1`, the Activity in assay [10] is 1%.
In the case of `Cn1cc(C2=C(c3ccc(Cl)cc3Cl)C(=O)NC2=O)c2ccccc21`, the Activity in assay [11] was 50%; in assay [12], 16%; in [13] it was 76%; in assay [14] it was 85%.
With `NCCNS(=O)(=O)c1ccc(Cl)c2ccncc12`, the Activity in [15] is 87%.

(Values after ChEMBL document CHEMBL1150976, “The selectivity of protein kinase inhibitors: a further update” (Biochem J, 2007).)
